The values below come from US10722501B2 (BAYER AKTIENGESELLSCHAFT, priority 2016, dated 2020).

The assay addresses T1, recombinant full-length human prolyl endopeptidase (PREP) (Homo sapiens, UniProt P48147).
T1 construct: To recombinant full-length human prolyl endopeptidase (PREP, R&D-Systems, 4308-SE); purchased R&D-Systems 4308-SE
T1 sequence (P48147 1-710): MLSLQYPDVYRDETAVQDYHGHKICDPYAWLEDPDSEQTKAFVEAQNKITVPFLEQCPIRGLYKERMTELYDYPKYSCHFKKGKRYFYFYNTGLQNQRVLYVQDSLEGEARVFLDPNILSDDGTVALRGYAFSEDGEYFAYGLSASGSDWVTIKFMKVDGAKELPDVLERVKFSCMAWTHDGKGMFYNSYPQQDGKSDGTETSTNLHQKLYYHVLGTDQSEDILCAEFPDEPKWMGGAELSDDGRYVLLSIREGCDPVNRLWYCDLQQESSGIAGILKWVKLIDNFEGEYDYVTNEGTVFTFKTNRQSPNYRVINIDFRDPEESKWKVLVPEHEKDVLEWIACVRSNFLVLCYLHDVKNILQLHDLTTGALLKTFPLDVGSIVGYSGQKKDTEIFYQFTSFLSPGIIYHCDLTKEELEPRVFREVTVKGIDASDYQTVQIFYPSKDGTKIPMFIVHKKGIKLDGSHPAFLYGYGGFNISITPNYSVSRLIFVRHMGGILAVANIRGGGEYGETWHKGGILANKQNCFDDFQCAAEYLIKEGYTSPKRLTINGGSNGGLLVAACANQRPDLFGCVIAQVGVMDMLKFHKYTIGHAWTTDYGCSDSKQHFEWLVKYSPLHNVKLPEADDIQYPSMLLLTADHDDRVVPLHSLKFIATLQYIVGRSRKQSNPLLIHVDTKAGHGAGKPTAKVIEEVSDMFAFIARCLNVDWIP
Briefly: Biochemical human prolyl endopeptidase (PREP) assay with fluorescently labelled substrate. As to conditions: substrate Z-Gly-Pro-AMC 50 μM, 32° C., 60 min; some as mean values from multiple independent determinations. In outline: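 0.4 nM (final, example) recombinant PREP in pH 7.5 Tris buffer with EDTA, GSH, BSA and Brij-35; compounds at 1 nM to 30 μM. Reaction started with 50 μM Z-Gly-Pro-AMC and followed by fluorescence (ex 360/em 465 nm) at 32° C for 60 min. IC50 interpolated from percent activity based on initial slopes.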
As for `O=C(C1CCCc2nn(Cc3noc(-c4cccc(C(F)(F)F)c4)n3)c(=O)n21)N1CCCC1` (racemic) [Example 69, (5RS)-5-(Pyrrolidin-1-ylcarbonyl)-2-({5-[3-(trifluoromethyl)phenyl]-1,2,4-oxadiazol-3-yl}methyl)-5,6,7,8-tetrahydro[1,2,4]triazolo[4,3-a]pyridin-3(2H)-one], the IC50 – broadly, the midpoint of a concentration-inhibition curve – stood at 210 nM.

In the case of `O=C(C1CCC(C(F)(F)F)c2nn(Cc3ncccc3F)c(=O)n21)N1CC[C@H](F)C1` (mixture of isomers) [Example 273, (5RS,8RS)-2-[(3-Fluoropyridin-2-yl)methyl]-5-{[(3S)-3-fluoropyrrolidin-1-yl]carbonyl}-8-(trifluoromethyl)-5,6,7,8-tetrahydro[1,2,4]triazolo[4,3-a]pyridin-3(2H)-one], the half-inhibitory concentration (IC50) came to 7.6 nM.

For `CC1Cc2nn(Cc3ccc(C(F)(F)F)nc3)c(=O)n2C(C(=O)N2CC(O)C2)C1` (single isomer, unassigned) [Example 135, (5RS,7RS)-5-[(3-Hydroxyazetidin-1-yl)carbonyl]-7-methyl-2-{[6-(trifluoromethyl)pyridin-3-yl]methyl}-5,6,7,8-tetrahydro[1,2,4]triazolo[4,3-a]pyridin-3(2H)-one], the IC50 came out at 34.5 nM.

Take `Cc1nc(C)c(Cn2nc3n(c2=O)C(C(=O)N2CCCC2)CCC3)nc1C` (racemic) [Example 103, (5RS)-5-(Pyrrolidin-1-ylcarbonyl)-2-[(3,5,6-trimethylpyrazin-2-yl)methyl]-5,6,7,8-tetrahydro[1,2,4]triazolo[4,3-a]pyridin-3(2H)-one]: the half-inhibitory concentration (IC50) turned out to be 0.16 nM.

In the case of `O=C(C1CCCc2nn(Cc3ccc4c(c3)CCCC4)c(=O)n21)N1CCC(F)(F)C1` (racemic) [Example 87, (5RS)-5-[(3,3-Difluoropyrrolidin-1-yl)carbonyl]-2-(5,6,7,8-tetrahydronaphthalen-2-ylmethyl)-5,6,7,8-tetrahydro[1,2,4]triazolo[4,3-a]pyridin-3(2H)-one], the IC50 turned out to be 1.17 nM.

Regarding `O=C([C@@H]1CCCc2nn(Cc3ncc(Cl)cc3Cl)c(=O)n21)N1CCC(F)(F)C1` [Example 399, (5S)-2-[(3,5-Dichloropyridin-2-yl)methyl]-5-[(3,3-difluoropyrrolidin-1-yl)carbonyl]-5,6,7,8-tetrahydro[1,2,4]triazolo[4,3-a]pyridin-3(2H)-one], the half-maximal inhibitory concentration (IC50) worked out at 1.55 nM.

For the compound `Cc1ccc(CCn2nc3n(c2=O)[C@H](C(=O)N2CCCC2)CCC3)cc1` [Example 521, (5S)-2-[2-(4-Methylphenyl)ethyl]-5-(pyrrolidin-1-ylcarbonyl)-5,6,7,8-tetrahydro[1,2,4]triazolo[4,3-a]pyridin-3(2H)-one], the IC50 stood at 0.44 nM.

In the case of `Cc1ccc(Cn2nc3n(c2=O)C(C(=O)N2CCCC2)CC(C)C3)cc1` (racemic) [Example 224, (5RS,7RS)-7-Methyl-2-(4-methylbenzyl)-5-(pyrrolidin-1-ylcarbonyl)-5,6,7,8-tetrahydro[1,2,4]triazolo[4,3-a]pyridin-3(2H)-one], the IC50 came to 0.56 nM.

As to `O=C(C1CC(C(F)(F)F)Cc2nn(Cc3ncc(C(F)(F)F)cc3Cl)c(=O)n21)N1CC[C@H](F)C1` (single isomer, unassigned) [Example 563], the 50% inhibitory concentration (IC50) is 0.33 nM.

On to `O=C(C1C(C(F)(F)F)CCc2nn(Cc3ncc(Cl)cc3F)c(=O)n21)N1C[C@@H](F)[C@@H](F)C1` (single isomer, unassigned) [Example 293], for which the IC50 is 85 nM.

As for `O=C([C@@H]1CCCc2nn(CCc3ccc(F)cc3)c(=O)n21)N1CC(F)(F)C1` [Example 345, (5S)-5-[(3,3-Difluoroazetidin-1-yl)carbonyl]-2-[2-(4-fluorophenyl)ethyl]-5,6,7,8-tetrahydro[1,2,4]triazolo[4,3-a]pyridin-3(2H)-one], the IC50 stood at 6.4 nM.

`CC1Cc2nn(Cc3ccc(C(F)(F)F)nc3)c(=O)n2C(C(=O)N2CC[C@H](F)C2)C1` (single isomer, unassigned) [Example 137]: the concentration for half-maximal inhibition (IC50) was 130 nM.

For the compound `O=C([C@@H]1CCC(F)(F)c2nn(Cc3ccc(Cl)cn3)c(=O)n21)N1CCC(F)(F)C1` [Example 586, (5S)-2-[(5-Chloropyridin-2-yl)methyl]-5-[(3,3-difluoropyrrolidin-1-yl)carbonyl]-8,8-difluoro-5,6,7,8-tetrahydro[1,2,4]triazolo[4,3-a]pyridin-3(2H)-one], the IC50 was found to be 14 nM.

Take `O=C([C@@H]1CCC(F)(F)c2nn(Cc3ccc(C(F)(F)F)nc3)c(=O)n21)N1CC[C@H](F)C1` [Example 278, (5S)-8,8-Difluoro-5-{[(3S)-3-fluoropyrrolidin-1-yl]carbonyl}-2-{[6-(trifluoromethyl)pyridin-3-yl]methyl}-5,6,7,8-tetrahydro[1,2,4]triazolo[4,3-a]pyridin-3(2H)-one]: the IC50 stood at 3.3 nM.

`O=C([C@@H]1CCCc2nn(Cc3ccc(C(F)F)nc3)c(=O)n21)N1C[C@@H](F)[C@@H](F)C1` [Example 207, (5S)-2-{[6-(Difluoromethyl)pyridin-3-yl]methyl}-5-{[(3R,4S)-3,4-difluoropyrrolidin-1-yl]carbonyl}-5,6,7,8-tetrahydro[1,2,4]triazolo[4,3-a]pyridin-3(2H)-one]: the half-maximal inhibitory concentration (IC50) is 4.2 nM.

Consider `O=C(C1CC(C(F)(F)F)Cc2nn(Cc3ncc(Cl)cc3F)c(=O)n21)N1C[C@@H](F)[C@@H](F)C1` (single isomer, unassigned) [Example 267], for which the 50% inhibitory concentration (IC50) was 2.3 nM.

Consider `O=C([C@@H]1CCCc2nn(Cc3ccc(F)nc3)c(=O)n21)N1CCC(F)(F)C1` [Example 536, (5S)-5-[(3,3-Difluoropyrrolidin-1-yl)carbonyl]-2-[(6-fluoropyridin-3-yl)methyl]-5,6,7,8-tetrahydro[1,2,4]triazolo[4,3-a]pyridin-3(2H)-one], for which the IC50 was found to be 9.6 nM.

As to `Cc1ccc(Cn2nc3n(c2=O)C(C(=O)N2CCC(F)(F)C2)CCC3)cc1` (racemic) [Example 42, (5RS)-5-[(3,3-Difluoropyrrolidin-1-yl)carbonyl]-2-(4-methylbenzyl)-5,6,7,8-tetrahydro[1,2,4]triazolo[4,3-a]pyridin-3(2H)-one], the half-inhibitory concentration (IC50) amounted to 1.45 nM.

With `O=C(C1CC(C(F)(F)F)Cc2nn(Cc3ccc(Cl)nc3)c(=O)n21)N1CCCC1` (single isomer, unassigned) [Example 229, (5RS,7RS)-2-[(6-Chloropyridin-3-yl)methyl]-5-(pyrrolidin-1-ylcarbonyl)-7-(trifluoromethyl)-5,6,7,8-tetrahydro[1,2,4]triazolo[4,3-a]pyridin-3(2H)-one], the 50% inhibitory concentration (IC50) was 0.34 nM.

Turning to `O=C([C@@H]1CCCc2nn(Cc3nc(C(F)(F)F)no3)c(=O)n21)N1CC(F)C1` [Example 540, (5S)-5-[(3-Fluoroazetidin-1-yl)carbonyl]-2-{[3-(trifluoromethyl)-1,2,4-oxadiazol-5-yl]methyl}-5,6,7,8-tetrahydro[1,2,4]triazolo[4,3-a]pyridin-3(2H)-one], the IC50 worked out at 27 nM.

Take `O=C(C1CCCc2nn(Cc3ccc(C(F)(F)F)cc3)c(=O)n21)N1CCCC1` (racemic) [Example 1, (5RS)-5-(Pyrrolidin-1-ylcarbonyl)-2-[4-(trifluoromethyl)benzyl]-5,6,7,8-tetrahydro[1,2,4]triazolo[4,3-a]pyridin-3(2H)-one]: the IC50 came out at 1.75 nM.

As to `O=C(C1CC(C(F)(F)F)Cc2nn(Cc3ccc(Cl)cn3)c(=O)n21)N1CC[C@H](F)C1` (mixture of isomers) [Example 314, (5RS,7RS)-2-[(5-Chloropyridin-2-yl)methyl]-5-{[(3S)-3-fluoropyrrolidin-1-yl]carbonyl}-7-(trifluoromethyl)-5,6,7,8-tetrahydro[1,2,4]triazolo[4,3-a]pyridin-3(2H)-one], the half-inhibitory concentration (IC50) is 1.4 nM.

Regarding `O=C([C@@H]1CCCc2nn(Cc3ccnc(C(F)(F)F)c3F)c(=O)n21)N1CC[C@H](O)C1` [Example 479, (5S)-2-{[3-Fluoro-2-(trifluoromethyl)pyridin-4-yl]methyl}-5-{[(3S)-3-hydroxypyrrolidin-1-yl]carbonyl}-5,6,7,8-tetrahydro[1,2,4]triazolo[4,3-a]pyridin-3(2H)-one], the IC50 was 25 nM.

`O=C(C1CC(C(F)(F)F)Cc2nn(Cc3ncc(Cl)cc3F)c(=O)n21)N1CC[C@H](F)C1` (single isomer, unassigned) [Example 265]: the half-inhibitory concentration (IC50) came to 1.3 nM.

In the case of `O=C([C@@H]1CCCc2nn(Cc3nc(C(F)(F)F)no3)c(=O)n21)N1CC(F)(F)C1` [Example 499, (5S)-5-[(3,3-Difluoroazetidin-1-yl)carbonyl]-2-{[3-(trifluoromethyl)-1,2,4-oxadiazol-5-yl]methyl}-5,6,7,8-tetrahydro[1,2,4]triazolo[4,3-a]pyridin-3(2H)-one], the IC50 turned out to be 110 nM.
